A word on the inhibition: it is the drop in the measured response relative to a control, in per cent.

Activity calls are given as the source filed them. No cut-off for these calls is given here.

The results in this text go back to ChEMBL document CHEMBL5696442, “Discovery of type II inhibitors of TGFβ-activated kinase 1 (TAK1) and mitogen-activated protein kinase kinase kinase kinase 2 (MAP4K2)” (J Med Chem, 2015).

For experiment [1], the target named is Membrane-associated tyrosine- and threonine-specific cdc2-inhibitory kinase (Homo sapiens) (UniProt Q99640). Nature of the experiment: Inhibition of PKMYT1 (unknown origin) at 1 uM by Ambit Kinomescan binding assay relative to control.
The target of experiment [2] is Serine/threonine-protein kinase 38-like (Homo sapiens) (UniProt Q9Y2H1). Description: Inhibition of NDR2 Lys2 labeling site in human A-375 cells at 0.5 uM by KiNativ Profiling analysis relative to control. In kind it is cell-based.
In experiment [3] the target is T1, Mitogen-activated protein kinase kinase kinase 2 (Homo sapiens) (UniProt Q9Y2U5).
T1 sequence (whole entry): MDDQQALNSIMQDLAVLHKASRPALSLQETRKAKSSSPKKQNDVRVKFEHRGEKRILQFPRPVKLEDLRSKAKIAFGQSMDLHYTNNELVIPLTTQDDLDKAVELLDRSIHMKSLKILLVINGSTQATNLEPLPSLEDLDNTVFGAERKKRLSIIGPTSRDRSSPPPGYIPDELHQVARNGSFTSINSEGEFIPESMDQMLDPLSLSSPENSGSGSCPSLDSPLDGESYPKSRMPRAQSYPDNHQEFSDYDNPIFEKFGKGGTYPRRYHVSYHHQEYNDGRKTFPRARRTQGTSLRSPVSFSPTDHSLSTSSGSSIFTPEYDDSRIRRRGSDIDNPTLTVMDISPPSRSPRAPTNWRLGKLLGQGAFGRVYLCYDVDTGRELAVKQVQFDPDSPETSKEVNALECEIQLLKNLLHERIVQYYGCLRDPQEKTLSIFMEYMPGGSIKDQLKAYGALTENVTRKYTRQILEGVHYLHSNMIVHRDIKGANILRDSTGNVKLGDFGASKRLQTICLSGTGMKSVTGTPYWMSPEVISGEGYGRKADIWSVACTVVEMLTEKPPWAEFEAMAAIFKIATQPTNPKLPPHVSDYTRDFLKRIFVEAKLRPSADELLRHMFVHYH
Description: Inhibition of MAP3K2 (unknown origin) at 1 uM by Ambit Kinomescan binding assay relative to control; values are per cent of control.

Experiment [4] has as its target Calcium/calmodulin-dependent protein kinase type 1D (Homo sapiens) (UniProt Q8IU85). Nature of the experiment: Inhibition of CAMK1D (unknown origin) at 10 uM by Ambit Kinomescan binding assay relative to control.
Experiment [5] addresses Interferon-induced, double-stranded RNA-activated protein kinase (Homo sapiens) (UniProt P19525). Description: Inhibition of PRKR (unknown origin) at 10 uM by Ambit Kinomescan binding assay.
The target in experiment [6] is T1, Mitogen-activated protein kinase kinase kinase 2 (Homo sapiens). Nature of the experiment: Inhibition of MAP3K2 Lys2 labeling site in human A-375 cells at 0.05 uM by KiNativ Profiling analysis relative to control. In kind it is cell-based.
Experiment [7] concerns the target Serine/threonine-protein kinase RIO2 (Homo sapiens) (UniProt Q9BVS4). Description: Inhibition of RIOK2 (unknown origin) at 10 uM by Ambit Kinomescan binding assay.
For experiment [8], the target named is Tyrosine-protein kinase CSK (Homo sapiens, UniProt P41240). Nature of the experiment: Inhibition of CSK ACT labeling site harbouring VSDFGLTKEASSTQDTGKLPVK in human A-375 cells at 5 uM by KiNativ Profiling analysis relative to control. Format: cell-based.
The target of experiment [9] is Cyclin-dependent kinase 11A (Homo sapiens) (UniProt Q9UQ88). Description: Inhibition of CDC2L2 (unknown origin) at 10 uM by Ambit Kinomescan binding assay relative to control; values are per cent of control.
For experiment [10], the target named is Serine/threonine-protein kinase WNK3 (Homo sapiens) (UniProt Q9BYP7). Nature of the experiment: Inhibition of Wnk3 Lys2 labeling site in human Huh-7 cells at 1 uM by KiNativ Profiling analysis relative to control. In kind it is cell-based.
Experiment [11] deals with Serine/threonine-protein kinase Nek6 (Homo sapiens) (UniProt Q9HC98). Description: Inhibition of NEK6 Lys2 labeling site harbouring VMHRDIKPANVFITATGVVK in human Huh-7 cell lysate at 1 uM by KiNativ Profiling analysis relative to control. Format: subcellular.
Experiment [12] addresses T2, Serine/threonine-protein kinase TAO3 (Homo sapiens) (UniProt Q9H2K8).
T2 sequence (whole entry): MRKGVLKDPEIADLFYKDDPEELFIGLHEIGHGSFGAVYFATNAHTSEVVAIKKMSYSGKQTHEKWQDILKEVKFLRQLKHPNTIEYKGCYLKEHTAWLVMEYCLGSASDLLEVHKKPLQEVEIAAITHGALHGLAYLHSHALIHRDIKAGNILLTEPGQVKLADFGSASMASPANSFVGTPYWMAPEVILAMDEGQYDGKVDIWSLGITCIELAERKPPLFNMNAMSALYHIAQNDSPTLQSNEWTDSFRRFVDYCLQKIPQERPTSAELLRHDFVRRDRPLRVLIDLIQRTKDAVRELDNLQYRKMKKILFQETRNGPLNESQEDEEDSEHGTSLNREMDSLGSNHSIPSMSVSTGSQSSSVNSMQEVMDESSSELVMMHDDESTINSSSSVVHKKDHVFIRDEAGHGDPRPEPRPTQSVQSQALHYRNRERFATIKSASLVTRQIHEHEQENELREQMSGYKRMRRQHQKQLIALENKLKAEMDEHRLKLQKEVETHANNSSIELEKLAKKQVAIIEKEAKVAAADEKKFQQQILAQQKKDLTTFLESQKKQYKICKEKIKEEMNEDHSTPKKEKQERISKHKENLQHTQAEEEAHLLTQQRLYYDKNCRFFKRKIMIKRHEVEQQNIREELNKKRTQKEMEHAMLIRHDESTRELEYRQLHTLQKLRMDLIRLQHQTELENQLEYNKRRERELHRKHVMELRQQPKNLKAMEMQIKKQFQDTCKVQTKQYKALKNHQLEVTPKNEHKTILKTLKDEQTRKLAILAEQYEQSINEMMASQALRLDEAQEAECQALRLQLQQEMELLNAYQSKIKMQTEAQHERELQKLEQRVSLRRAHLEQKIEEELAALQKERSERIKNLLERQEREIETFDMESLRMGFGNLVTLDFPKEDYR
Description: Inhibition of TAO3 Lys2 labeling site in human Huh-7 cell lysate at 1 uM by KiNativ Profiling analysis relative to control. In kind it is subcellular.

The target in experiment [13] is Serine/threonine-protein kinase WNK2 (Homo sapiens) (UniProt Q9Y3S1). Nature of the experiment: Inhibition of Wnk2 ACT labeling site in human Huh-7 cells at 1 uM by KiNativ Profiling analysis relative to control. In kind it is cell-based.
For experiment [14], the target named is 5'-AMP-activated protein kinase catalytic subunit alpha-2 (Homo sapiens) (UniProt P54646). Description: Inhibition of AMPKa2 Lys1 labeling site in human Huh-7 cells at 1 uM by KiNativ Profiling analysis relative to control. In kind it is cell-based.
Experiment [15] has as its target Phosphatidylinositol 4-kinase beta (Homo sapiens) (UniProt Q9UBF8). Description: Inhibition of PI4KB ATP labeling site harbouring VPHTQAVVLNSKDKAPYLIYVEVLECENFDTTSVPARIPENR in human Huh-7 cell lysate at 1 uM by KiNativ Profiling analysis relative to control. In kind it is subcellular.

Serine/threonine-protein kinase Nek6 (Homo sapiens), sequence (Q9HC98 whole entry): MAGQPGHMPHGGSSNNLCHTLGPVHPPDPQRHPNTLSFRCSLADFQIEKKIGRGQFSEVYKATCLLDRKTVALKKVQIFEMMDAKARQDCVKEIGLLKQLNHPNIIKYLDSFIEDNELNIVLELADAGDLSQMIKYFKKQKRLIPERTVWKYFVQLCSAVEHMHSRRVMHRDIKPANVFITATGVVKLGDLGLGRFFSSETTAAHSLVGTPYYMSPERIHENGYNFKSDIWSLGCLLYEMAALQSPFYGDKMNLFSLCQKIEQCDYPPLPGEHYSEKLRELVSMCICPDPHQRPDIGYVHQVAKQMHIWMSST
Calcium/calmodulin-dependent protein kinase type 1D (Homo sapiens), sequence (Q8IU85 whole entry, looked up): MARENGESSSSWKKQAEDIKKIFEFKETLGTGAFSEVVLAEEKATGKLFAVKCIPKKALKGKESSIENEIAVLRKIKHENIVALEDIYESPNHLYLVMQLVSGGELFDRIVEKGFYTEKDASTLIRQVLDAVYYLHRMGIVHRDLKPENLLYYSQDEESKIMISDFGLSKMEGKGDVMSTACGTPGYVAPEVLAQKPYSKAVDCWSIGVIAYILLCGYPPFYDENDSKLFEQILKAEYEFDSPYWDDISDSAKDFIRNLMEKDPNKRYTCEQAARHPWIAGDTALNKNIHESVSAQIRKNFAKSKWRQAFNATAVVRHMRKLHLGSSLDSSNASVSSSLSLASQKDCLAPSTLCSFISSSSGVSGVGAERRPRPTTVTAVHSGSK
Serine/threonine-protein kinase WNK2 (Homo sapiens), sequence (Q9Y3S1 whole entry): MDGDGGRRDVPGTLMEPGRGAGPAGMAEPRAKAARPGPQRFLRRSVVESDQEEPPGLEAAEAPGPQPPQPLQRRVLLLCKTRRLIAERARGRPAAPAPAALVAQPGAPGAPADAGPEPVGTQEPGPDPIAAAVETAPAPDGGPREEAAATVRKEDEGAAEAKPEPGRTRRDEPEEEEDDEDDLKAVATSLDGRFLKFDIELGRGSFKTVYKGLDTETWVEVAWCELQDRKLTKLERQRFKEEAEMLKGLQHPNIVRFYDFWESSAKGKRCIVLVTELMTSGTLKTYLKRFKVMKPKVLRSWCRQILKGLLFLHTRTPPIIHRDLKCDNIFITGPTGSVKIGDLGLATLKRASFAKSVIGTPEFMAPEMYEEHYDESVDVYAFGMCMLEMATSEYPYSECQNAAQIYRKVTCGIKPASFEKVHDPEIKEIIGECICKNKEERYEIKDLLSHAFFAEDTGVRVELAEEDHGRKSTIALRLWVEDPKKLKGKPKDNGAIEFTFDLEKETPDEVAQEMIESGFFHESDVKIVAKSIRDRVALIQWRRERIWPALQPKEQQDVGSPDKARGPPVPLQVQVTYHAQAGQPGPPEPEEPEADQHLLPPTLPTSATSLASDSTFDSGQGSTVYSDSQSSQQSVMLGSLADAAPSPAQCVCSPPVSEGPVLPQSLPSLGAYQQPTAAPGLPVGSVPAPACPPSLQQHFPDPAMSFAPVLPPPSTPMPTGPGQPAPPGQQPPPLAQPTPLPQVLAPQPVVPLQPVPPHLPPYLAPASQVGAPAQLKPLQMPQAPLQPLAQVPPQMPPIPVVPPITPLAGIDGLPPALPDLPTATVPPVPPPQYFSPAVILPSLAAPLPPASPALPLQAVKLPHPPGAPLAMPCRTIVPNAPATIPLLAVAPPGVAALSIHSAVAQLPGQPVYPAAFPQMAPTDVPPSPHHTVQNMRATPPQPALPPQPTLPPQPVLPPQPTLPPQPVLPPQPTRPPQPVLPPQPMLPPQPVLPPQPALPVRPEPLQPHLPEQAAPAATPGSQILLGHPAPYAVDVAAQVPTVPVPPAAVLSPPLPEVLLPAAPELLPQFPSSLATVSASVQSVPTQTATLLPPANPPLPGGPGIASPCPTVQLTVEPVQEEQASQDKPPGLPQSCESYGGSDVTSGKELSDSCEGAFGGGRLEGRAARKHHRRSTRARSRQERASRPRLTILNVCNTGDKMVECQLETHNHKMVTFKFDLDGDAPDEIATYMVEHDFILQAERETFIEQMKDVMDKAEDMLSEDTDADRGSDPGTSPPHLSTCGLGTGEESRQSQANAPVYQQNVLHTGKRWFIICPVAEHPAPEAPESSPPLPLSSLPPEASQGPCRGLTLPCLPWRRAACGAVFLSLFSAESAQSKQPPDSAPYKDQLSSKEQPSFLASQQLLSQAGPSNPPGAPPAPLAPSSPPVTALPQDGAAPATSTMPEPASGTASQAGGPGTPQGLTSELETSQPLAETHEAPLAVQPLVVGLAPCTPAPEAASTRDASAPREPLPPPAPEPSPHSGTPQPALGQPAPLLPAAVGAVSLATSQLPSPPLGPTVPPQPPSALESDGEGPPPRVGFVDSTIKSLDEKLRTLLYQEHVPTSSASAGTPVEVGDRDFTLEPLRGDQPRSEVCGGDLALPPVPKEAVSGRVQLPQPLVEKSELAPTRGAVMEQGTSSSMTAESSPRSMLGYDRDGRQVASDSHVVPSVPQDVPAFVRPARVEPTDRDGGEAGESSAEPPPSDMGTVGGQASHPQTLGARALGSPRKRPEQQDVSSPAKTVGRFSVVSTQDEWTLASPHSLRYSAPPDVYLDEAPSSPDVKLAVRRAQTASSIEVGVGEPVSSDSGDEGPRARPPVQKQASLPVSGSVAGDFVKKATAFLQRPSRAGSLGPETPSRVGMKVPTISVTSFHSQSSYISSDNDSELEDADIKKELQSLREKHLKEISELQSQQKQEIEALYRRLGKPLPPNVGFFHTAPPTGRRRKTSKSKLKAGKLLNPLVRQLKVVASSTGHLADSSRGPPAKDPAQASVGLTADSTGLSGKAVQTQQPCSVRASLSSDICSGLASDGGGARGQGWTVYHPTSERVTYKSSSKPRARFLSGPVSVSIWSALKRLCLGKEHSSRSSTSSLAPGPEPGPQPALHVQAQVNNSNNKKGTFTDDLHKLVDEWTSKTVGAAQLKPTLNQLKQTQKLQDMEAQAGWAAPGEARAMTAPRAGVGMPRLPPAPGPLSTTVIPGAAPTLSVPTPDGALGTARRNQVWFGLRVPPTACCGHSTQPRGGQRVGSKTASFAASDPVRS
Serine/threonine-protein kinase RIO2 (Homo sapiens), sequence (Q9BVS4 whole entry, looked up): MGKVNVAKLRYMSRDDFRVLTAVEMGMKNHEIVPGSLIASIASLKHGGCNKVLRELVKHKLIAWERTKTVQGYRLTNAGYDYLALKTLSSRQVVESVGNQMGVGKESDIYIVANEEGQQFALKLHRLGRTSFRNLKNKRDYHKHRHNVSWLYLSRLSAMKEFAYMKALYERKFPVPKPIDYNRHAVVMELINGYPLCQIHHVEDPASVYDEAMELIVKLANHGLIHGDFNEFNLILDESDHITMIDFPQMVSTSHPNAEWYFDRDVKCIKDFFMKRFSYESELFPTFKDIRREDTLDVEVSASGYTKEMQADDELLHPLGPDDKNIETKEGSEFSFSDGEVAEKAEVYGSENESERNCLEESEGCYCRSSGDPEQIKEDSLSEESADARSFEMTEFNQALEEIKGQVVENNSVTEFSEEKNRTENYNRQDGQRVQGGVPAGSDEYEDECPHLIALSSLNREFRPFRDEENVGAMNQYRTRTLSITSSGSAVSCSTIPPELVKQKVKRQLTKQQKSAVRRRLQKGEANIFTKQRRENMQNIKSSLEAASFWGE
Membrane-associated tyrosine- and threonine-specific cdc2-inhibitory kinase (Homo sapiens), sequence (Q99640 whole entry): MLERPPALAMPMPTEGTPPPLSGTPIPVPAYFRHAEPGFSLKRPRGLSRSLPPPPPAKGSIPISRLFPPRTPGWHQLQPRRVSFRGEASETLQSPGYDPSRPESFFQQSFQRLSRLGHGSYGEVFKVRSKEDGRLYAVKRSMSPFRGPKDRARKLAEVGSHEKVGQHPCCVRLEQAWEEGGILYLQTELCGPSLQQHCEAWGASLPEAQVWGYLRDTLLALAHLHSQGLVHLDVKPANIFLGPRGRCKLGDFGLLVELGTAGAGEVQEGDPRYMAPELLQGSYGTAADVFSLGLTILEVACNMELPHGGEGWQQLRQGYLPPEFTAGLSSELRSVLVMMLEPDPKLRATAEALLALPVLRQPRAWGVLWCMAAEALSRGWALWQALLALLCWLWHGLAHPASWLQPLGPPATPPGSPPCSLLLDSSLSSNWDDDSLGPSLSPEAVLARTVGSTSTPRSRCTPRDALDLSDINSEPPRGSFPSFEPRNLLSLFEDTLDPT
Phosphatidylinositol 4-kinase beta (Homo sapiens), sequence (Q9UBF8 2-816 limits assumed): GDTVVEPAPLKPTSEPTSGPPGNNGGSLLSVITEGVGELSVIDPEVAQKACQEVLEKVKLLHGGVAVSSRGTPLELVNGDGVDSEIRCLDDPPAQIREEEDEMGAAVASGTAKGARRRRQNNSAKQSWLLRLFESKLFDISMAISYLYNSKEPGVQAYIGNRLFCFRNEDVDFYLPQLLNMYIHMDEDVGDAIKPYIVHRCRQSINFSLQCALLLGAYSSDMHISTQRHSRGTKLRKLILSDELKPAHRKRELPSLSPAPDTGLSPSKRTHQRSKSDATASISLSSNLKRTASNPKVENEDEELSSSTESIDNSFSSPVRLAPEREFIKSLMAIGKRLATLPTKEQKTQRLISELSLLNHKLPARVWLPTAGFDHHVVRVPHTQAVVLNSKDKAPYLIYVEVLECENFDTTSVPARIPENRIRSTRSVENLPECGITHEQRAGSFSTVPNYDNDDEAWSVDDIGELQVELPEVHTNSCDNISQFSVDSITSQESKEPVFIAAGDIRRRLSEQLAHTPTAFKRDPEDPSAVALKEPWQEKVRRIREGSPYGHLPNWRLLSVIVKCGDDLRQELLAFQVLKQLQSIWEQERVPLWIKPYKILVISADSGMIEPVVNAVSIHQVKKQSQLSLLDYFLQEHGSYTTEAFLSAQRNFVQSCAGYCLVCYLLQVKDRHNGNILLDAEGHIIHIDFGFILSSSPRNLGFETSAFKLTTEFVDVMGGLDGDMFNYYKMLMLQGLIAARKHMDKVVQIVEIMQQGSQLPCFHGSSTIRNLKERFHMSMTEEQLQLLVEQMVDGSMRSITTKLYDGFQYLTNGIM

For `CCN1CCN(Cc2ccc(NC(=O)c3ccc(C)c(/C=C/c4cnc5[nH]ccc5c4OC)c3)cc2C(F)(F)F)CC1`, the figures for the inhibition in experiment [1] and in [2] were 68% and 13.4%, respectively. The same compound yielded a residual activity in experiment [3] of 23%.

For `CCN1CCN(Cc2ccc(NC(=O)c3ccc(C)c(Oc4ccnc5[nH]ccc45)c3)cc2C(F)(F)F)CC1`, the inhibition was 6.2% in [4], 7.6% in [6] and 78.2% in experiment [8]. Also, the inhibition entry in experiment [5] and in [7] was “inactive” each time. In [9], this compound had a percent of control of 0.05%.

`CNc1cc(Oc2cc(C(=O)Nc3cc(N4CCN(C)CC4)cc(C(F)(F)F)c3)ccc2C)ncn1`: the inhibition was 15.3% in experiment [10]; 19.4% in experiment [11]; -1.2% in experiment [12]; 21.6% in [13]; -7.5% in experiment [14]; 14.7% in experiment [15].
